From patent US20150150822A1, “NOVEL CORE-SHELL NANOPARTICLES FOR ORAL DRUG DELIVERY” (South Dakota State University, priority 2013, published 2015)

Experiments:
[1] = cited from earlier work
[2] = Permeability and efflux ratio of saquinavir across Caco-2 cell monolayers; assay type: in vitro ADME; details: human, pH 7.4, Caco-2 monolayer
Description: Caco-2 cells (ATCC, Manassas, Va.) were kindly provided by Dr. Gunaje Jayarama (Department of Pharmaceutical Sciences, South Dakota State University, Brookings, S. Dak.) at passage #4. Cells were seeded at 1×10^6 cells onto […]®polyester filter membranes (pore size 0.4 um, growth area 4.67 cm^2) in 6 welled sterile plates ([…]®, Corning Costar Corp., Cambridge, Mass.). The cells were grown in DMEM (4.5 g/L glucose) medium supplemented with 20% FBS, 1% non-essential amino acids, I % L-glutamine, streptomycin (100 μg/ml) and penicillin (100 IU/ml). The cultures were maintained in an atmosphere of 5% CO2 and 95% air, and 95% relative humidity at 37° C. (CO2 incubator, Galaxy 170S). The growth medium was changed every day in the first two weeks followed by three times a week until time of use. When reaching confluency, cells were trypsinized and passage numbers 25-35 were used in the experiments. The cells were allowed to differentiate in the […]® filter membrane during 3 weeks in complete growth medium.
The permeability of saquinavir and saquinavir loaded ZLF nanoparticles were studied across Caco-2 cell monolayers in an absorptive direction apical to basolateral (AP-BL) or secretory direction basolateral to apical (BL-AP). Before the permeability experiments, the cell monolayers were rinsed twice with HBSS, pH 7.4, and equilibrated under experimental conditions for 20 min. Then, the apical fluid was replaced by 1.5 ml of experimental solution. Transepithelial electrical resistance (TEER) was measured using an EVOM meter (World Precision Instruments, Inc., Sarasota, Fla.) to ensure monolayer confluence and integrity. TEER was calculated as follows: […]
Where R(Ω) is the measured resistance and A is the surface area (cm^2). […] Results are expressed as apparent permeability coefficient (Papp), calculated according to: […]
Saquinavir content after extraction was analyzed in the samples using the HPLC as recited herein. […]
The ratio of effective permeability for saquinavir or efflux ratio was calculated as follows: […]

[3] = background statement; cited from earlier work

Row | efflux ratio at 3 h, 20 μM ([2]; Papp B-A/Papp A-B) | Papp A→B at 3 h, 20 μM ([2]; apical to basolateral, free saquinavir at 20 μM) | Papp B→A at 3 h, 20 μM ([2]; basolateral to apical, free saquinavir at 20 μM) | Compound | Log P [1] | solubility in water [1] | bioavailability [3]
1 |  |  |  | CC1=C(/C=C/C(C)=C/C=C/C(C)=C/CO)C(C)(C)CCC1 [Retinol] | 6.2 | practically insoluble in water | 
2 | 16.7 | 0.85 ± 0.21 ×10⁻⁶ cm/s | 14.2 ± 5.3 ×10⁻⁶ cm/s | CC(C)(C)NC(=O)[C@@H]1C[C@@H]2CCCC[C@@H]2CN1C[C@@H](O)[C@H](Cc1ccccc1)NC(=O)[C@H](CC(N)=O)NC(=O)c1ccc2ccccc2n1 [Saquinavir] |  |  | 0.7-4%
